Data as given in ChEMBL document CHEMBL3739294, “Hydroxylated Daphniphyllum Alkaloids from Daphniphyllum himalense” (J Nat Prod, 2015).

Key:
[1] = target: T1, Protein deacetylase HDAC6 (Homo sapiens) (UniProt Q9UBN7); assay: Inhibition of full-length recombinant human HDAC6 expressed in insect High5 cells using Boc-Lys(-acetyl)-AMC as substrate incubated for 3 hrs; design: concentration or dose not given beside the values; details: concentration not given here
T1 sequence (whole entry): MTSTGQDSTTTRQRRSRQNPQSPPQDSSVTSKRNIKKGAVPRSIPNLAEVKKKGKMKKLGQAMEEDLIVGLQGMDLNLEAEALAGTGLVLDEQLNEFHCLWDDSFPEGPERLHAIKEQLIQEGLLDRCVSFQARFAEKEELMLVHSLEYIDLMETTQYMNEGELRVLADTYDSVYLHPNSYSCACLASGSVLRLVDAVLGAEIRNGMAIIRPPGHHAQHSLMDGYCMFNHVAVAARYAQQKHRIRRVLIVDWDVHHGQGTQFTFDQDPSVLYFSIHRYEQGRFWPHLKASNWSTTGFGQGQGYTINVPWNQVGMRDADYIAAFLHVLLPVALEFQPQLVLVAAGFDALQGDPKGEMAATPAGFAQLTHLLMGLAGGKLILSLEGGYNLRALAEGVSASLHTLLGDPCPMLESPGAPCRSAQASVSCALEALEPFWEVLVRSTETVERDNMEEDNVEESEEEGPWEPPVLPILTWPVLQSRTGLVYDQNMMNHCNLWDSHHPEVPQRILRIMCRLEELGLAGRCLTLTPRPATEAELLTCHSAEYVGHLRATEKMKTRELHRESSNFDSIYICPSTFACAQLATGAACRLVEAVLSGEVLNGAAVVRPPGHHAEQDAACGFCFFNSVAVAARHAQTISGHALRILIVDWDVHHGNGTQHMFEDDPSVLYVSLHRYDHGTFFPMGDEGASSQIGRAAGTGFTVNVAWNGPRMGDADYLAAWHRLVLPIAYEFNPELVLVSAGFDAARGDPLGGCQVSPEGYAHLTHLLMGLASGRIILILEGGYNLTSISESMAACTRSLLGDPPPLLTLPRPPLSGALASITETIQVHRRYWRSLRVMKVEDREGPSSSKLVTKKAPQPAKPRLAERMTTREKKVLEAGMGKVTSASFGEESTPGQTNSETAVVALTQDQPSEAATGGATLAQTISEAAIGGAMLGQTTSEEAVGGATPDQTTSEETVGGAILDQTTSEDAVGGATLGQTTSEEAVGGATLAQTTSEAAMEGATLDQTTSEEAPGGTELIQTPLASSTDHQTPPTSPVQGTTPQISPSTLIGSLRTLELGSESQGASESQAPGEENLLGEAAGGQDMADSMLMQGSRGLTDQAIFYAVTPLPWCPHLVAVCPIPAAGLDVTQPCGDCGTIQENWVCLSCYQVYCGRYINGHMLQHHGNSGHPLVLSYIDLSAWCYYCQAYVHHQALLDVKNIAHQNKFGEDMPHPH

[2] = target: T2, Tyrosine-protein phosphatase non-receptor type 1 (Homo sapiens) (UniProt P18031); assay: Inhibition of PTP1B (unknown origin) using pNPP as substrate at 20 ug/ml measured for 3 mins by colorimetric assay
T2 sequence (whole entry): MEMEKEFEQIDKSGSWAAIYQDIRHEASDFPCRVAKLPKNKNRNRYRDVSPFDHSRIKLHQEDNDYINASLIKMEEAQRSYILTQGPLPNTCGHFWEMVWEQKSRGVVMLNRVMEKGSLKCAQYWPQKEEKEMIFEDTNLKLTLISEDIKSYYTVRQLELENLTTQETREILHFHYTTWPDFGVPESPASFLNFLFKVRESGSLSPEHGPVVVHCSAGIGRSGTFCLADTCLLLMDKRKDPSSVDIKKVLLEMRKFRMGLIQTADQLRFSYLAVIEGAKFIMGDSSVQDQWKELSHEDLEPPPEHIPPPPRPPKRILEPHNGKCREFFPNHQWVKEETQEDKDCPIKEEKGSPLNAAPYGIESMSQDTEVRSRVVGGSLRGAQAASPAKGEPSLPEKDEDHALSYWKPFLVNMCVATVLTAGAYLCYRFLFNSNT

[3] = target: Tyrosine-protein phosphatase non-receptor type 1, PTP1B (Homo sapiens) (UniProt P18031); assay: Inhibition of human PTP1B protein expressed in insect High5 cells by Z-LYTE kinase assay; details: concentration not given here
[4] = target: T3, Aurora kinase A (Homo sapiens) (UniProt O14965); assay: Inhibition of aurora kinase A (unknown origin) incubated for 60 mins by fluorescence analysis
T3 sequence (whole entry): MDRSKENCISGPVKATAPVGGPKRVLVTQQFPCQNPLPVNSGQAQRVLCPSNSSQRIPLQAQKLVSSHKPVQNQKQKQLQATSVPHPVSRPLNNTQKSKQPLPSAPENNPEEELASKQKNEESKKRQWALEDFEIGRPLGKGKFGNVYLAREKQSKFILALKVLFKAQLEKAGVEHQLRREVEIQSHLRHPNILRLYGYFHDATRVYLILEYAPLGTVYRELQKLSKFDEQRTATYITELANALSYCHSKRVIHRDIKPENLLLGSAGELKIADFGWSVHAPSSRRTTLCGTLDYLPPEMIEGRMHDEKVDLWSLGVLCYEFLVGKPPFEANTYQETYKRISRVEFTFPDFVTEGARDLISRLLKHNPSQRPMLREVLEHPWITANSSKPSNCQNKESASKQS

Row | Structure (SMILES) | inhibition [1] [%] | further results
1 | COC(=O)[C@@H]1C[C@@]23C(=O)[C@H]4C[C@H]5N(C[C@@H](C[C@H](O)C6=C2[C@@H]1CC6)[C@]53C)C[C@H]4C | < 10 | –
2 | COC(=O)C1=C2C[C@H](O)C3=C2[C@@]2(C1)C(=O)[C@H]1C[C@H]4N(C[C@@H](CC3)[C@]42C)C[C@H]1C | < 10 | inhibition [2]: 40%
3 | COC(=O)C1=C2CCC3=C2[C@@]2(C1)C(=O)[C@H]1C[C@@]4(O)N(C[C@@H](CC3)[C@@]24C)C[C@H]1C | < 10 | inhibition [4]: > 30%
4 | C[C@@H]1CN2C[C@H]3CCC4=C5C(=CC[C@@]56C(=O)[C@H]1C[C@@H]2[C@@]36C)[C@@H](O)C4 | < 10 | –
5 | COC(=O)[C@@H]1C[C@@]23C(=O)[C@H]4[C@H](O)[C@H]5N(C[C@@H](CCC6=C2[C@@H]1CC6)[C@]53C)C[C@H]4C | < 10 | –

More lines, main results first:

Row | inhibition [1] [%] | Structure (SMILES) | further results
6 | < 10 | C[C@@H]1CN2C[C@H]3CC[C@]4(O)C[C@H](O)C5=C4[C@@]4(CC5)C(=O)[C@H]1C[C@@H]2[C@@]34C | –
7 | < 10 | C[C@@H]1CN2C[C@H]3CC[C@H](O)[C@@H]4C(CCO)=C(C(=O)O)C[C@@]45C(=O)[C@H]1C[C@@H]2[C@@]35C | –
8 | < 10 | COC(=O)[C@@H]1C[C@@]23C(=O)[C@H]4C[C@H]5N(C[C@@H](CCC6=C2[C@@H]1C[C@H]6O)[C@]53C)C[C@H]4C | –
9 | < 10 | COC(=O)[C@@H]1C[C@@]23C(=O)[C@H]4C[C@H]5N(C[C@H]4C)C[C@@H]([C@@H](O)CC4=C2[C@@H]1CC4)[C@]53C | –
10 | < 10 | COC(=O)[C@@H]1C[C@@]23C(=O)[C@H]4C[C@H]5N(C[C@H]4C)C[C@@H]([C@H](O)CC4=C2[C@@H]1CC4)[C@]53C | –
11 | < 10 | C[C@@H]1CN2C[C@H]3CC[C@@H]4C(=O)C=C5CC[C@@]6(C(=O)[C@H]1C[C@@H]2[C@@]36C)[C@@]54O | inhibition [2]: 40%; inhibition [3]: 44%
12 | < 10 | C[C@@H]1CN2C[C@H]3CC[C@H](O)[C@@H]4C5=C(C[C@@]46C(=O)[C@H]1C[C@@H]2[C@@]36C)C(=O)OCC5 | –
13 | < 10 | COC(=O)[C@@H]1C[C@@]23C(=O)[C@H]4C[C@H]5N(C[C@@H](C[C@@H](O)C6=C2[C@@H]1CC6)[C@]53C)C[C@H]4C | –
